The results in this text go back to the supplement of paper PMC6045584.

Compound in test [1]: CC(=O)NCC(=O)N1[C@@H]2CC[C@H]1c1ccc(Nc3ncc(C(F)(F)F)c(NC4CCC4)n3)cc12
In words: surviving fraction relative to DMSO-only wells; higher = less growth inhibition. The note with it: exposure time: 5 days. In short, it runs like this: (§1)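 Five days of continuous inhibitor exposure, at 0.5, 1, 5, 10, 50, 100, 500 and 1000 nM, followed a 24-hour period after log-phase tumour cell lines were seeded at 250–500 cells per well in 384-well plates. Surviving fraction was derived from CellTiter-Glo luminescence relative to the median of DMSO-only wells. Plates were read after 10 minutes at room temperature, and lines screened three times were kept only if replicate Pearson r >0.7 and median Z' >0.3.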

Compound in the next test: CC(=O)O[C@H]1C(=O)[C@@]2(C)[C@H]([C@H](OC(=O)c3ccccc3)[C@]3(O)C[C@H](OC(=O)[C@H](O)[C@@H](NC(=O)c4ccccc4)c4ccccc4)C(C)=C1C3(C)C)[C@]1(OC(C)=O)CO[C@@H]1C[C@@H]2O [PACLITAXEL]
Described as above. Conditions: exposure time: 5 days. In outline: as §1

± gives the standard deviation of the averaged measurements.

With NOS1 BONE, the surviving fraction in test [1] (0.5 nM) is 1.25 ± 0.038; in test [1] (1 nM), 1.29 ± 0.1; in test [1] (5 nM) it was 1.53 ± 0.21; in test [1] (10 nM), 1.21 ± 0.095; in test [1] (50 nM), 0.84 ± 0.062; in test [1] (100 nM), 0.724 ± 0.055. Besides, the surviving fraction in test [1] (500 nM) was determined as 0.302 ± 0.017; in test [1] (1000 nM), 0.219 ± 0.028; with PACLITAXEL (0.5 nM), 1.08 ± 0.072; with PACLITAXEL (1 nM), 0.6 ± 0.053; in the test with PACLITAXEL (5 nM), 0.396 ± 0.026; in the test with PACLITAXEL (10 nM) it was 0.304 ± 0.0081. Also, the surviving fraction with PACLITAXEL (50 nM) stood at 0.287 ± 0.024; in the test with PACLITAXEL (100 nM), 0.252 ± 0.013; in the test with PACLITAXEL (500 nM), 0.214 ± 0.039; in the test with PACLITAXEL (1000 nM) it was 0.21 ± 0.024.
Turning to SIHA CERVIX, the surviving fraction in test [1] (0.5 nM) is 0.799 ± 0.044; in test [1] (1 nM), 0.859 ± 0.034; in test [1] (5 nM) it was 0.933 ± 0.053; in test [1] (10 nM) it was 0.978 ± 0.042; in test [1] (50 nM) it was 1.01 ± 0.064; in test [1] (100 nM) it was 0.801 ± 0.046. Besides, the surviving fraction in test [1] (500 nM) came to 0.631 ± 0.046; in test [1] (1000 nM) it was 0.531 ± 0.034; with PACLITAXEL (0.5 nM) it was 0.988 ± 0.031; with PACLITAXEL (1 nM), 0.948 ± 0.04; with PACLITAXEL (5 nM) it was 0.238 ± 0.029; in the test with PACLITAXEL (10 nM), 0.136 ± 0.014. For the same test system, the surviving fraction with PACLITAXEL (50 nM) worked out at 0.0897 ± 0.0031; with PACLITAXEL (100 nM), 0.0817 ± 0.004; with PACLITAXEL (500 nM) it was 0.101 ± 0.0087; with PACLITAXEL (1000 nM) it was 0.0943 ± 0.014.
Consider MG63 BONE, for which the surviving fraction in test [1] (0.5 nM) came to 0.974 ± 0.0053; in test [1] (1 nM) it was 0.966 ± 0.015; in test [1] (5 nM), 0.99 ± 0.024; in test [1] (10 nM), 0.987 ± 0.013; in test [1] (50 nM) it was 0.816 ± 0.003; in test [1] (100 nM) it was 0.594 ± 0.021. In addition, the surviving fraction is 0.298 ± 0.021 in test [1] (500 nM); 0.227 ± 0.007 in test [1] (1000 nM); 0.901 ± 0.049 with PACLITAXEL (0.5 nM); 0.881 ± 0.021 in the test with PACLITAXEL (1 nM); 0.263 ± 0.016 in the test with PACLITAXEL (5 nM); 0.095 ± 0.01 with PACLITAXEL (10 nM). Besides, the surviving fraction was 0.0463 ± 0.0055 in the test with PACLITAXEL (50 nM), 0.038 ± 0.0044 in the test with PACLITAXEL (100 nM), 0.0287 ± 0.0015 with PACLITAXEL (500 nM) and 0.03 ± 0.002 with PACLITAXEL (1000 nM).
RDES SOFT TISSUE: the surviving fraction in test [1] (0.5 nM) was found to be 1.25 ± 0.15; in test [1] (1 nM), 1.26 ± 0.18; in test [1] (5 nM), 1.3 ± 0.047; in test [1] (10 nM), 1.3 ± 0.079; in test [1] (50 nM), 1.07 ± 0.17; in test [1] (100 nM), 0.245 ± 0.018. The surviving fraction came to 0.249 ± 0.025 in test [1] (500 nM); 0.195 ± 0.0049 in test [1] (1000 nM); 1.099 ± 0.0061 with PACLITAXEL (0.5 nM); 1.22 ± 0.22 in the test with PACLITAXEL (1 nM); 0.189 ± 0.067 in the test with PACLITAXEL (5 nM); 0.129 ± 0.014 with PACLITAXEL (10 nM). Moreover, the surviving fraction was 0.0673 ± 0.009 in the test with PACLITAXEL (50 nM), 0.0537 ± 0.0058 with PACLITAXEL (100 nM), 0.056 ± 0.011 with PACLITAXEL (500 nM) and 0.0623 ± 0.004 with PACLITAXEL (1000 nM).
HCC38 BREAST: the surviving fraction in test [1] (0.5 nM) amounted to 1.19 ± 0.12; in test [1] (1 nM), 1.19 ± 0.3; in test [1] (5 nM), 0.952 ± 0.096; in test [1] (10 nM), 1.26 ± 0.31; in test [1] (50 nM), 0.747 ± 0.077; in test [1] (100 nM), 0.668 ± 0.051. In addition, the surviving fraction stood at 0.594 ± 0.15 in test [1] (500 nM); 0.455 ± 0.062 in test [1] (1000 nM); 0.894 ± 0.17 in the test with PACLITAXEL (0.5 nM); 0.492 ± 0.062 with PACLITAXEL (1 nM); 0.138 ± 0.03 with PACLITAXEL (5 nM); 0.11 ± 0.0059 in the test with PACLITAXEL (10 nM). In addition, the surviving fraction stood at 0.112 ± 0.053 with PACLITAXEL (50 nM), 0.094 ± 0.026 in the test with PACLITAXEL (100 nM), 0.108 ± 0.0074 in the test with PACLITAXEL (500 nM) and 0.0823 ± 0.0076 in the test with PACLITAXEL (1000 nM).
Take MFM223 BREAST: the surviving fraction in test [1] (0.5 nM) turned out to be 1.1 ± 0.065; in test [1] (1 nM) it was 1.02 ± 0.035; in test [1] (5 nM), 1.05 ± 0.094; in test [1] (10 nM), 0.963 ± 0.077; in test [1] (50 nM) it was 0.794 ± 0.082; in test [1] (100 nM) it was 0.699 ± 0.063. Besides, the surviving fraction in test [1] (500 nM) was 0.47 ± 0.029; in test [1] (1000 nM), 0.378 ± 0.027; with PACLITAXEL (0.5 nM), 0.948 ± 0.056; in the test with PACLITAXEL (1 nM), 0.736 ± 0.066; in the test with PACLITAXEL (5 nM) it was 0.295 ± 0.026; with PACLITAXEL (10 nM) it was 0.129 ± 0.012. Also, the surviving fraction with PACLITAXEL (50 nM) came out at 0.0873 ± 0.012; in the test with PACLITAXEL (100 nM), 0.0663 ± 0.003; with PACLITAXEL (500 nM), 0.062 ± 0.0051; in the test with PACLITAXEL (1000 nM) it was 0.0632 ± 0.0075.
As to CHLA90 AUTONOMIC GANGLIA, the surviving fraction in test [1] (0.5 nM) came out at 0.951 ± 0.025; in test [1] (1 nM), 0.983 ± 0.046; in test [1] (5 nM), 0.96 ± 0.028; in test [1] (10 nM) it was 0.91 ± 0.039; in test [1] (50 nM) it was 0.754 ± 0.032; in test [1] (100 nM), 0.5867 ± 0.0055. Further, the surviving fraction was 0.436 ± 0.045 in test [1] (500 nM); 0.301 ± 0.037 in test [1] (1000 nM); 0.957 ± 0.032 with PACLITAXEL (0.5 nM); 0.948 ± 0.056 with PACLITAXEL (1 nM); 0.507 ± 0.022 with PACLITAXEL (5 nM); 0.231 ± 0.026 with PACLITAXEL (10 nM). The surviving fraction in the test with PACLITAXEL (50 nM) was 0.0937 ± 0.01; in the test with PACLITAXEL (100 nM), 0.076 ± 0.016; in the test with PACLITAXEL (500 nM), 0.0513 ± 0.0046; with PACLITAXEL (1000 nM), 0.0577 ± 0.009.
